Measurements: patent US20050222264A1, “Anti-rhinovirus active agents” (UNIHART CORPORATION, priority 2002, published 2005)

How the values were obtained:
Type in all cases: cell-based, Human Rhinoviruses
Settings in all cases: count after 3 days
Rhinovirus M Strain = test: Plaques assay on cell mono-layers, Rhinovirus M strain, MKC-5
Procedure: (§1) The activity of the above compounds was evaluated in a plaque inhibition assay carried out on mono-layers of kidney cells from Rhesus monkey and from WI38 and Ohio-HeLa human cells, suitable for the propagation of Rhinoviruses M and H strains respectively. In this assay, the addition to the culture medium of an agent able to impede the viral penetration in the cells reduces the formation of microplaques compared with an untreated control culture. Therefore, the effectiveness of the test compound can be determined by counting the microplaques in treated and non-treated cultures after exposure to the virus.
(§2) • 1. prepare confluent kidney cell mono-layers from Rhesus monkeys and from human cell lines (WI 38, MRC-5 and Ohio-Hela cells) in 6.75 cm Ø Petri dishes; • 2. aspirate the growth medium; • 3. wash each dish with 10 ml of culture medium (serum-free growth medium), Earle's saline solution—lactoalbumine hydrolysate and incubate at 33° C. for 60′; • 4. aspirate the liquid; • 5. prepare serial 1:10 viral dilutions (Rhinovirus-strain M and Rhinovirus-strain H) in Earle's saline solution—lactoalbumine hydrolysate and inoculate each dish with 0.2 ml volumes of viral dilution. Each viral dilution is inoculated in duplicate. • 6. Prepare analogous serial viral dilutions (as in 5) in Earle's saline solution—lactoalbumine hydrolysate, added with the anti-viral test compound at the desired concentration. • 7. Prepare Earle's saline solution—lactoalbumine hydrolysate added with the test anti-viral compound at the desired concentration as the control (one control for each test compound). • 8. incubate the infected mono-layers at 33° C. for 60′, gently rocking the dishes at 15′ intervals in order to evenly distribute the inoculum; • 9. place the dishes on a flat surface; • 10. thoroughly add 10 ml of nutritive agar in Earle's saline solution—calf serum, equilibrated at 44° C., to each dish and allow to harden. […]

Rhinovirus H Strain [1] = test: Plaques assay on cell mono-layers, Rhinovirus H strain, WI38
Procedure: as §1
• 1. prepare confluent kidney cell mono-layers from Rhesus monkeys and from human cell lines (WI 38, MRC-5 and Ohio-Hela cells) in 6.75 cm Ø Petri dishes; • 2. aspirate the growth medium; • 3. wash each dish with 10 ml of culture medium (serum-free growth medium), Earle's saline solution—lactoalbumine hydrolysate and incubate at 33° C. for 60′; • 4. aspirate the liquid; • 5. prepare serial 1:10 viral dilutions (Rhinovirus-strain M and Rhinovirus-strain H) in Earle's saline solution—lactoalbumine hydrolysate and inoculate each dish with 0.2 ml volumes of viral dilution. Each viral dilution is inoculated in duplicate. • 6. […]

Rhinovirus H Strain [2] = test: Plaques assay on cell mono-layers, Rhinovirus H strain, Ohio-HeLa
Procedure: as §1, §2

[3] = dilution of inoculated virus 10^−3, same molar concentration of a 12.5 γ/ml xenaldial solution
[4] = dilution of inoculated virus 10^−4, same molar concentration of a 12.5 γ/ml xenaldial solution
[5] = dilution of inoculated virus 10^−5, same molar concentration of a 12.5 γ/ml xenaldial solution

Question: With `CCOC(Nc1ccc(C(=O)O)cc1)C(=O)c1ccc(-c2ccccc2)cc1` (stereo not drawn) [Xenalamine, p-(α-ethoxy-p-phenyl-phenacylamino)-benzoic acid, reference compound] as the molecule, how does the “n° of plaques in 2 dishes” value (Rhinovirus M Strain; [3]) read?
Answer: 4

Question: What about the “n° of plaques in 2 dishes” value (Rhinovirus M Strain; [4]) of the same molecule?
Answer: 2

Question: What about the “n° of plaques in 2 dishes” value (Rhinovirus M Strain; [5]) of the same molecule?
Answer: 1

Question: What about the “n° of plaques in 2 dishes” value (Rhinovirus H Strain [1]; [3]) of the same molecule?
Answer: 3

Question: What about the “n° of plaques in 2 dishes” value (Rhinovirus H Strain [1]; [4]) of the same molecule?
Answer: 1

Question: And the “n° of plaques in 2 dishes” value (Rhinovirus H Strain [2]; [3])?
Answer: 2

Question: And the “n° of plaques in 2 dishes” value (Rhinovirus H Strain [2]; [4])?
Answer: 1

Question: What about the “n° of plaques in 2 dishes” value (Rhinovirus H Strain [2]; [5]) of the same molecule?
Answer: 1
